# Columns and labels:
# THP-1 [1] = test: Pro-apoptotic activity in human THP1 cells assessed as necrotic cells at 10 uM after 24 hrs by annexin V/propidium iodide staining-based flow cytometric method relative to control; format: functional
# [2] = Cell cycle arrest in human AsPC1 cells assessed as accumulation at G2/M phase at 100 uM after 24 hrs by flow cytometric method (reference value: 29 +/- 5%); format: functional, cell-based
# ASPC1 [3] = test: Pro-apoptotic activity in human AsPC1 cells assessed as necrotic cells at 10 uM after 24 hrs by annexin V/propidium iodide staining-based flow cytometric method (reference value: 2.1 +/- 0.4%); format: functional
# [4] = Cell cycle arrest in human THP1 cells assessed as accumulation at S phase at 1 uM after 24 hrs by flow cytometric method (reference value: 16 +/- 2%); format: functional, cell-based; conditions: THP-1
# [5] = Cell cycle arrest in human AsPC1 cells assessed as accumulation at G2/M phase at 75 uM after 24 hrs by flow cytometric method (reference value: 29 +/- 5%); format: functional, cell-based
# THP-1 [6] = test: Pro-apoptotic activity in human THP1 cells assessed as necrotic cells at 30 uM after 24 hrs by annexin V/propidium iodide staining-based flow cytometric method relative to control; format: functional
# THP-1 [7] = test: Pro-apoptotic activity in human THP1 cells assessed as early apoptotic cells at 3 uM after 24 hrs by annexin V/propidium iodide staining-based flow cytometric method (reference value: 0.4 +/- 0.1%); format: functional
# [8] = Cell cycle arrest in human THP1 cells assessed as accumulation at S phase at 0.5 uM after 24 hrs by flow cytometric method (reference value: 16 +/- 2%); format: functional, cell-based; conditions: THP-1
# [9] = Cell cycle arrest in human AsPC1 cells assessed as accumulation at G2/M phase at 30 uM after 24 hrs by flow cytometric method (reference value: 29 +/- 5%); format: functional, cell-based
# THP-1 [10] = test: Pro-apoptotic activity in human THP1 cells assessed as early apoptotic cells at 0.5 uM after 24 hrs by annexin V/propidium iodide staining-based flow cytometric method (reference value: 0.4 +/- 0.1%); format: functional
# ASPC1 [11] = test: Pro-apoptotic activity in human AsPC1 cells assessed as late apoptotic cells at 75 uM after 24 hrs by annexin V/propidium iodide staining-based flow cytometric method (reference value: 0.8 +/- 0.1%); format: functional
# [12] = Cell cycle arrest in human AsPC1 cells assessed as accumulation at S phase at 50 uM after 24 hrs by flow cytometric method (reference value: 23 +/- 3%); format: functional, cell-based
# ASPC1 [13] = test: Pro-apoptotic activity in human AsPC1 cells after 24 hrs by annexin V/propidium iodide staining-based flow cytometric method; format: functional; conditions: ASPC1, 24 h, read-out: ED50 (the source's name)
# ASPC1 [14] = test: Pro-apoptotic activity in human AsPC1 cells assessed as necrotic cells at 75 uM after 24 hrs by annexin V/propidium iodide staining-based flow cytometric method (reference value: 2.1 +/- 0.4%); format: functional
# ASPC1 [15] = test: Pro-apoptotic activity in human AsPC1 cells assessed as early apoptotic cells at 1 uM after 24 hrs by annexin V/propidium iodide staining-based flow cytometric method (reference value: 0.8 +/- 0.1%); format: functional
# THP-1 [16] = test: Pro-apoptotic activity in human THP1 cells assessed as early apoptotic cells at 0.75 uM after 24 hrs by annexin V/propidium iodide staining-based flow cytometric method (reference value: 0.4 +/- 0.1%); format: functional
# THP-1 [17] = test: Pro-apoptotic activity in human THP1 cells assessed as early apoptotic cells at 10 uM after 24 hrs by annexin V/propidium iodide staining-based flow cytometric method (reference value: 0.4 +/- 0.1%); format: functional
# THP-1 [18] = test: Pro-apoptotic activity in human THP1 cells assessed as necrotic cells at 0.75 uM after 24 hrs by annexin V/propidium iodide staining-based flow cytometric method relative to control; format: functional
# ASPC1 [19] = test: Pro-apoptotic activity in human AsPC1 cells assessed as early apoptotic cells at 100 uM after 24 hrs by annexin V/propidium iodide staining-based flow cytometric method (reference value: 0.8 +/- 0.1%); format: functional
# THP-1 [20] = test: Pro-apoptotic activity in human THP1 cells assessed as late apoptotic cells at 30 uM after 24 hrs by annexin V/propidium iodide staining-based flow cytometric method (reference value: 0.4 +/- 0.1%); format: functional
# THP-1 [21] = test: Pro-apoptotic activity in human THP1 cells assessed as necrotic cells at 1 uM after 24 hrs by annexin V/propidium iodide staining-based flow cytometric method relative to control; format: functional
# ASPC1 [22] = test: Induction of pro-differentiation of human AsPC1 cells assessed as CD44 expression at 10 uM after 3 days by immunostaining-based micro-capillary flow cytometric method (reference value: 87 +/- 1%); format: functional
# ASPC1 [23] = test: Pro-apoptotic activity in human AsPC1 cells assessed as early apoptotic cells at 10 uM after 24 hrs by annexin V/propidium iodide staining-based flow cytometric method (reference value: 0.8 +/- 0.1%); format: functional
# ASPC1 [24] = test: Pro-apoptotic activity in human AsPC1 cells assessed as late apoptotic cells at 30 uM after 24 hrs by annexin V/propidium iodide staining-based flow cytometric method (reference value: 0.8 +/- 0.1%); format: functional
# [25] = Cell cycle arrest in human THP1 cells assessed as accumulation at G2/M phase at 1 uM after 24 hrs by flow cytometric method (reference value: 32 +/- 1%); format: functional, cell-based; conditions: THP-1
# [26] = Cell cycle arrest in human AsPC1 cells assessed as accumulation at G0/G1 phase at 30 uM after 24 hrs by flow cytometric method (reference value: 48 +/- 7%); format: functional, cell-based
# ASPC1 [27] = test: Pro-apoptotic activity in human AsPC1 cells assessed as necrotic cells at 30 uM after 24 hrs by annexin V/propidium iodide staining-based flow cytometric method (reference value: 2.1 +/- 0.4%); format: functional
# ASPC1 [28] = test: Pro-apoptotic activity in human AsPC1 cells assessed as necrotic cells at 1 uM after 24 hrs by annexin V/propidium iodide staining-based flow cytometric method (reference value: 2.1 +/- 0.4%); format: functional
# ASPC1 [29] = test: Pro-apoptotic activity in human AsPC1 cells assessed as early apoptotic cells at 75 uM after 24 hrs by annexin V/propidium iodide staining-based flow cytometric method (reference value: 0.8 +/- 0.1%); format: functional
# [30] = Cell cycle arrest in human AsPC1 cells assessed as accumulation at S phase at 30 uM after 24 hrs by flow cytometric method (reference value: 23 +/- 3%); format: functional, cell-based
# ASPC1 [31] = test: Pro-apoptotic activity in human AsPC1 cells assessed as late apoptotic cells at 1 uM after 24 hrs by annexin V/propidium iodide staining-based flow cytometric method (reference value: 0.8 +/- 0.1%); format: functional
# ASPC1 [32] = test: Pro-apoptotic activity in human AsPC1 cells assessed as early apoptotic cells at 30 uM after 24 hrs by annexin V/propidium iodide staining-based flow cytometric method (reference value: 0.8 +/- 0.1%); format: functional
# THP-1 [33] = test: Pro-apoptotic activity in human THP1 cells assessed as late apoptotic cells at 10 uM after 24 hrs by annexin V/propidium iodide staining-based flow cytometric method (reference value: 0.4 +/- 0.1%); format: functional
# [34] = Cell cycle arrest in human THP1 cells assessed as accumulation at S phase at 10 uM after 24 hrs by flow cytometric method (reference value: 16 +/- 2%); format: functional, cell-based; conditions: THP-1
smiles,measurement,setting,value
NC(=[Se])N/N=C/c1cccc2cccnc12,Activity,THP-1 [1],4%
same,Activity,[2],17%
same,Activity,ASPC1 [3],1.6%
same,Activity,[4],26%
same,Activity,[5],14.4%
same,Activity,THP-1 [6],4%
same,Activity,THP-1 [7],2.2%
same,Activity,[8],22%
same,Activity,[9],8.2%
same,Activity,THP-1 [10],1.7%
same,Activity,ASPC1 [11],4.1%
same,Activity,[12],26%
same,EC50,ASPC1 [13],> 100 µM
same,Activity,ASPC1 [14],4.1%
same,Activity,ASPC1 [15],0.2%
same,Activity,THP-1 [16],1.1%
same,Activity,THP-1 [17],6%
same,Activity,THP-1 [18],0.7%
same,Activity,ASPC1 [19],5.7%
same,Activity,THP-1 [20],46%
same,Activity,THP-1 [21],0.4%
same,Activity,ASPC1 [22],77%
same,Activity,ASPC1 [23],0.4%
same,Activity,ASPC1 [24],1.1%
same,Activity,[25],31%
same,Activity,[26],69.2%
same,Activity,ASPC1 [27],1.9%
same,Activity,ASPC1 [28],1.8%
same,Activity,ASPC1 [29],0.6%
same,Activity,[30],22.5%
same,Activity,ASPC1 [31],0.4%
same,Activity,ASPC1 [32],0%
same,Activity,THP-1 [33],49%
same,Activity,[34],27%
